According to publication PMC8151276, “An Integrated Approach toward NanoBRET Tracers for Analysis of GPCR Ligand Engagement” (Molecules, 2021):

Assays:
[1] = target: T1, CHRM4 (Homo sapiens, UniProt P08173); test: NanoBRET screen HiBiT-CHRM4 in HEK293; assay type: binding; conditions: CHRM4
T1 construct: purchased Promega (in-house HiBiT-GPCR construct library, NanoBRET)
T1 sequence (P08173 1-479): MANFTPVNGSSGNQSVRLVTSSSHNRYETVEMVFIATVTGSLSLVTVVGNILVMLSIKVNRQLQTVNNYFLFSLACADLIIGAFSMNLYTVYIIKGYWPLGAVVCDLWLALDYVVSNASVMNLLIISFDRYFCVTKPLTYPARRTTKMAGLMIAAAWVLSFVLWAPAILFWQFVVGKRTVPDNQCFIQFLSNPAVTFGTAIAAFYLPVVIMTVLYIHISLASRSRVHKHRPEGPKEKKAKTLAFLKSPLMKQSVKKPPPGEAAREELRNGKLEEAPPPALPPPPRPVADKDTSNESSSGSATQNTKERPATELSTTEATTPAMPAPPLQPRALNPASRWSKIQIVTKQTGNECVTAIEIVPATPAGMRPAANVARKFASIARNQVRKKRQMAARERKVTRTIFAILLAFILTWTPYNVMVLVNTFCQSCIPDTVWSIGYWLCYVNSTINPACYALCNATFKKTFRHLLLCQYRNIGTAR
Description: (§1) Each tracer candidate was screened across the entire library of HiBiT-GPCR constructs using NanoBRET as the detection modality. As depicted in Figure 4A, the specificity of interactions was evaluated through decrease in BRET due to competitive displacement of a bound tracer by excess parental compound. Each tracer was analyzed for binding to each HiBiT-GPCR fusion in the absence and in the presence of competing parental compound. Briefly, HEK293 cells were transfected with HiBiT-GPCR constructs diluted into promoterless DNA to reduce expression and maximize translocation to the cell surface. Each tracer candidate was then screened at concentrations of 1 μM and 0.1 μM across cells expressing these fusions. Cells were treated for 1.5 h with tracer either alone or in the presence of 20 μM competing parental compound (i.e., control). BRET was measured upon addition of purified LgBiT and subsequent complementation with HiBiT genetically fused to a GPCR. The specificity of interactions was assessed through a decrease in BRET signal due to competitive displacement of the bound tracer. To further gauge the robustness of these interactions, the fold response over the control (i.e., BRETtracer/BRETcontrol) was calculated. We chose a 1.5-fold response, which translates to ≥7-fold signal over noise as the minimal threshold required to score an interaction as positive.
(§2) HiBiT-GPCR DNA constructs were diluted in 10 mM Tris pH 8 to a final concentration of 0.01 μg/μL, arrayed in 96-well plates and stored at −20 °C. For transfection, HEK293 cells were suspended in Opti-MEM (without phenol red) supplemented with 2% fetal bovine serum (Seradigm) and 100 units/mL penicillin–streptomycin (Gibco) at a final concentration of 220,000 cells/mL and dispensed into white 96-well plates at 90 μL/well. Subsequent transfections and screens were carried using an Agilent Bravo Automated Liquid Handling Platform. First, the 96-well HiBiT DNA arrays were diluted 25-fold in Opti-MEM (without serum or phenol red) to a final concentration of 0.0004 μg/μL and 20 μL of the diluted DNAs were transferred into new 96-well plates. Next, promoterless carrier DNA (1 μg/μL) was diluted 25-fold (0.04 μg/μL) and then dispensed into the diluted arrays at 20 μL/well. Following brief mixing, Viafect transfection reagent (Promega) diluted 16-fold into Opti-MEM was dispensed into the plates at 40 μL/well. After mixing by pipetting, plates were incubated for 10 min on the pipetting station deck. The DNA-transfection reagent complexes were then added to plates containing cells. To facilitate the screen, 10 μL of DNA-transfection reagent complexes were added in duplicates to the top 4 and bottom 4 rows, resulting in two identical 48-well arrays per plate. Plates with transfected cells were incubated for 18–20 h at 37 °C/5% CO2. A screen of each tracer across the entire library using two different concentrations requires duplicate plates of transfected cells. Depending on the number of tracers being screened, transfections can be scaled up using the same ratios. The next day, for each tracer, four 20× screening solutions in tracer dilution buffer (Promega) were prepared: two duplicates at final concentration of 20 μM and two duplicates at a final concentration of 2 μM. […] The four resulting solutions were diluted 4-fold in Opti-MEM without serum or phenol red to generate 5× solutions (5 µM and 0.5 µM tracer +/− 100 μM competing compound). To screen the library, a BioTek MultiFlo FX liquid dispenser was used to dispense 22.5 µL of tracer solution to the top 4 rows and 22.5 µL tracer + competing compound solution to the 4 bottom rows. Plates were briefly mixed on an orbital shaker and incubated for 1.5 h at room temperature. […] Plates were briefly mixed on an orbital shaker and incubated for 15 min to allow complementation.

[2] = target: T2, FZD10 (Homo sapiens, UniProt Q9ULW2); test: NanoBRET screen HiBiT-FZD10 in HEK293; assay type: binding; conditions: FZD10
T2 construct: purchased Promega (in-house HiBiT-GPCR construct library, NanoBRET)
T2 sequence (Q9ULW2 21-581): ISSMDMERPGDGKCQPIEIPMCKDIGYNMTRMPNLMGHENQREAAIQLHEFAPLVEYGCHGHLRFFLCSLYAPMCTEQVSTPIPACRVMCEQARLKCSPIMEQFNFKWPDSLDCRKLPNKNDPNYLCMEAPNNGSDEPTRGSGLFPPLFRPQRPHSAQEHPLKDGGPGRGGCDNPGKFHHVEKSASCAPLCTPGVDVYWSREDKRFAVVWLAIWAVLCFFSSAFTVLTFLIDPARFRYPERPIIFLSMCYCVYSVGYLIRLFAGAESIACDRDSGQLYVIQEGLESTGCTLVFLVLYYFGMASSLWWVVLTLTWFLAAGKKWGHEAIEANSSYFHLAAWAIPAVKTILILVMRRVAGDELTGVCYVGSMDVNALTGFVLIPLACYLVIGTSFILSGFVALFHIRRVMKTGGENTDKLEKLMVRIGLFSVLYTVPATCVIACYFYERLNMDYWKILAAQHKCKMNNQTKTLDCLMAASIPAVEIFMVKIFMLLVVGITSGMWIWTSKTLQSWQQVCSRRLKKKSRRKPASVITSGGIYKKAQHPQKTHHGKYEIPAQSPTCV
Description: as §1, §2

CN1CCN(C2=Nc3cc(Cl)ccc3Nc3ccc(CNC(=O)CCOCCOCCOCCOCCNC(=O)CCc4ccc5n4[B-](F)(F)[N+]4=C(c6ccc[nH]6)C=CC4=C5)cc32)CC1 [Clozapine-b-2-NB590]
NanoBRET Fold Response ([1]; 0.1μM tracer): 1.48 | NanoBRET Fold Response ([1]; 1μM tracer): 2.78 | NanoBRET Fold Response ([2]; 0.1μM tracer): 1.01 | NanoBRET Fold Response ([2]; 1μM tracer): 1.08

CN1CCN(C2=Nc3cc(Cl)ccc3N(CC(=O)NCCOCCOCCOCCOCCNC(=O)CCc3ccc4n3[B-](F)(F)[N+]3=C(c5ccc[nH]5)C=CC3=C4)c3ccccc32)CC1 [Clozapine-c-2-NB590]
NanoBRET Fold Response ([1]; 0.1μM tracer): 0.97 | NanoBRET Fold Response ([1]; 1μM tracer): 0.98 | NanoBRET Fold Response ([2]; 0.1μM tracer): 1.00

O=C(CCOCCOCCOCCOCCNC(=O)CCc1ccc2n1[B-](F)(F)[N+]1=C(c3ccc[nH]3)C=CC1=C2)NCCCN1CCN(C2=Nc3ccccc3Oc3ccc(Cl)cc32)CC1 [Loxapine-a-2-NB590]
NanoBRET Fold Response ([1]; tracer 0.1μM): 1.11 | NanoBRET Fold Response ([1]; tracer 1μM): 1.18 | NanoBRET Fold Response ([2]; tracer 0.1μM): 0.98 | NanoBRET Fold Response ([2]; tracer 1μM): 0.99

COc1ccccc1N1CCN(CCCCN2C(=O)c3ccc(CNC(=O)CCOCCOCCOCCOCCNC(=O)CCc4ccc5n4[B-](F)(F)[N+]4=C(c6ccc[nH]6)C=CC4=C5)cc3C2=O)CC1 [NAN-190-2-NB590]
NanoBRET Fold Response ([1]; tracer 0.1μM): 1.18 | NanoBRET Fold Response ([1]; tracer 1μM): 1.17 | NanoBRET Fold Response ([2]; tracer 0.1μM): 0.99 | NanoBRET Fold Response ([2]; tracer 1μM): 1.04

COc1ccccc1N1CCN(CCCCN2C(=O)c3ccc(CNC(=O)CCOCCNC(=O)c4ccc(CNC(=O)CCc5ccc6n5[B-](F)(F)[N+]5=C(c7ccc[nH]7)C=CC5=C6)cc4)cc3C2=O)CC1 [NAN-190-3-NB590]
NanoBRET Fold Response ([1]; tracer 0.1μM): 1.30 | NanoBRET Fold Response ([1]; tracer 1μM): 0.66 | NanoBRET Fold Response ([2]; tracer 0.1μM): 0.92 | NanoBRET Fold Response ([2]; tracer 1μM): 0.79

O=C(CCc1ccc2n1[B-](F)(F)[N+]1=C(c3ccc[nH]3)C=CC1=C2)NCc1ccc(C(=O)NCCOCCC(=O)N[C@@H]2CC[C@@]3(O)[C@H]4Cc5ccc(O)c6c5[C@@]3(CCN4CC3CC3)[C@H]2O6)cc1 [Naltrexone-3-NB590]
NanoBRET Fold Response ([1]; tracer 0.1μM): 0.66 | NanoBRET Fold Response ([1]; tracer 1μM): 0.79 | NanoBRET Fold Response ([2]; tracer 0.1μM): 0.66 | NanoBRET Fold Response ([2]; tracer 1μM): 1.06

Cc1cc2c(s1)Nc1ccccc1N=C2N1CCN(CCCNC(=O)CCOCCOCCOCCOCCNC(=O)CCc2ccc3n2[B-](F)(F)[N+]2=C(c4ccc[nH]4)C=CC2=C3)CC1 [Olanzapine-a-2-NB590]
NanoBRET Fold Response ([1]; tracer 0.1μM): 1.07 | NanoBRET Fold Response ([1]; tracer 1μM): 1.23 | NanoBRET Fold Response ([2]; tracer 0.1μM): 0.98 | NanoBRET Fold Response ([2]; tracer 1μM): 0.99

O=C(CCc1ccc2n1[B-](F)(F)[N+]1=C(c3ccc[nH]3)C=CC1=C2)NCc1ccc(C(=O)NCCOCCOCCNCC(O)COc2cccc3ccccc23)cc1 (centres unmarked) [Propranolol-3-NB590]
NanoBRET Fold Response ([1]; 0.1μM): 0.96 | NanoBRET Fold Response ([1]; 1μM): 1.05 | NanoBRET Fold Response ([2]; 0.1μM): 1.04 | NanoBRET Fold Response ([2]; 1μM): 1.02

O=C(CCc1ccc2n1[B-](F)(F)[N+]1=C(c3ccc[nH]3)C=CC1=C2)NCCOCCOCCNC(=O)OCCOCCN1CCN(C2=Nc3ccccc3Sc3ccccc32)CC1 [Quetiapine-a-2-NB590]
NanoBRET Fold Response ([1]; tracer 0.1μM): 1.65 | NanoBRET Fold Response ([1]; tracer 1μM): 2.06 | NanoBRET Fold Response ([2]; tracer 0.1μM): 0.92 | NanoBRET Fold Response ([2]; tracer 1μM): 0.80
